{"source": "patent US6486199B1", "about": "“Spiro and dispiro 1,2,4-trioxolane antimalarials” (Medicines for Malaria Venture MMV International Centre …, priority 2001, dated 2002)", "key": {"[1]": {"test_system": "chloroquine-resistant K1 strain of P. falciparum", "assay": "in vitro screen against chloroquine-resistant K1 strain of P. falciparum", "format": "cell-based", "settings": "for IC50: Plasmodium falciparum"}, "[2]": {"test_system": "chloroquine-sensitive NF54 strain of P. falciparum", "assay": "in vitro screen against chloroquine-sensitive NF54 strain of P. falciparum", "format": "cell-based", "settings": "for IC50: Plasmodium falciparum"}, "P. berghei [3]": {"test_system": "P. berghei", "assay": "1-day Peters test against P. berghei in vivo", "settings": "for ED50 / ED90: Plasmodium berghei, 24 h; for ED90: read-out: P. berghei (1 day) ED90 po"}, "P. berghei [4]": {"test_system": "P. berghei", "assay": "4-day Peters test against P. berghei in vivo", "settings": "4 day"}, "[5]": {"test_system": "21-day-old schistosomules of Schistosoma mansoni", "assay": "effect on 21-day-old schistosomules in mice", "format": "in vivo", "settings": "single 200 mg/kg per os; for FWR (%): female worm reduction rate; for Mean female worm burden: mean ± standard deviation; for TWR (%): total worm reduction rate", "procedure": "[…] Each group was treated per os with OZ compounds at a single dose of 200 mg/kg. Untreated mice served as the control. All groups were killed 4 weeks after treatment and the liver and intestine were removed and separated. The liver and intestine were compressed and alive male and female worms could be seen and counted. The effect of the compounds was evaluated by mean total and female worm burden."}, "[6]": {"test_system": "adult schistosomes (49-day-old) of Schistosoma mansoni", "assay": "effect on adult schistosomes (49-day-old) in mice", "format": "in vivo", "settings": "single 400 mg/kg per os", "procedure": "Mice were infected with 100 Schistosoma mansoni cercariae […]. Each group was treated per os with OZ compounds at a single dose of 400 mg/kg. Untreated mice served as the control. All groups were killed 4 weeks after treatment and the liver and intestine were removed and separated. The liver and intestine were compressed and alive male and female worms could be seen and counted."}, "[7]": {"assay": "differential scanning calorimetry (DSC), thermal stability", "format": "physicochemical", "settings": "thermal decomposition"}, "Schistosoma mansoni": {"test_system": "Schistosoma mansoni", "assay": "treatment of mice infected with Schistosoma mansoni cercaria, six weekly oral doses", "format": "in vivo", "settings": "artemether at doses four times higher than OZ05; arteflene 6×600 mg/kg p.o.; fenozan 6×100 mg/kg p.o.", "excerpt": "Mice (MORO SPF female 18-20g) were infected with 90 (±10) cecaria of Schistosoma mansoni subcutaneously."}, "[8]": {"test_system": "ANKA strain of P. Berghei", "assay": "single dose STI in vivo screen in infected Moro SPF mice", "settings": "for inhibition in vivo at 10 mg/kg: Plasmodium berghei, 72 h"}, "NB2a cell line": {"test_system": "NB2a cell line", "assay": "neurotoxicity against the NB2a cell line", "format": "cell-based"}, "[9]": {"test_system": "adult schistosomes (49-day-old) of Schistosoma mansoni", "assay": "effect on adult schistosomes (49-day-old) in mice", "format": "in vivo", "settings": "dose used was 200 mg/kg"}, "parasitemia": {"test_system": "parasitemia", "assay": "onset of drug action and recrudescence after single oral dose", "format": "in vivo", "procedure": "The reduction of parasitemia was monitored 12 h after treatment, and the time of recrudescence was assessed by daily blood smears for 14 days, followed by intermittent assessment for up to 30 days."}}, "note": "Read-outs that look alike come from different tables or passages of the source. Marks after values point to notes of the source that are not given here.", "data": [{"smiles": "OC1CCC2(CC1)OOC1(O2)C2CC3CC(C2)CC1C3", "note": "(stereo not drawn) [OZ32, Adamantane-2-spiro-3′-8′-hydroxy-1′,2′,4′-trioxaspiro[4.5]decane]", "values": [{"measurement": "IC50 (ng/ml) K1", "setting": "[1]; in vitro, K1 strain", "result": 0.25, "unit": "ng/mL"}, {"measurement": "IC50 (ng/ml) NF54", "setting": "[2]; in vitro, NF54 strain", "result": 0.51, "unit": "ng/mL"}, {"measurement": "P. berghei (1 day) ED50 po", "setting": "P. berghei [3]; 1 day, po", "result": 1.9, "unit": "mg/kg"}, {"measurement": "P. berghei (1 day) ED90 po", "setting": "P. berghei [3]; 1 day, po", "result": 13, "unit": "mg/kg"}, {"measurement": "P. berghei (1 day) ED50 sc", "setting": "P. berghei [3]; 1 day, sc", "result": "> 1", "unit": "mg/kg"}, {"measurement": "P. berghei (1 day) ED90 sc", "setting": "P. berghei [3]; 1 day, sc", "result": 2.1, "unit": "mg/kg"}, {"measurement": "P. berghei (4 day) ED50 po", "setting": "P. berghei [4]; po", "result": 2.6, "unit": "mg/kg"}, {"measurement": "P. berghei (4 day) ED90 po", "setting": "P. berghei [4]; po", "result": 5.1, "unit": "mg/kg"}, {"measurement": "P. berghei (4 day) ED50 sc", "setting": "P. berghei [4]; sc", "result": 0.6, "unit": "mg/kg"}, {"measurement": "P. berghei (4 day) ED90 sc", "setting": "P. berghei [4]; sc", "result": 1.3, "unit": "mg/kg"}, {"measurement": "FWR (%)", "setting": "[5]", "result": 70, "unit": "%"}, {"measurement": "Mean female worm burden", "setting": "[5]", "result": "3.8 ± 1.9^b"}, {"measurement": "TWR (%)", "setting": "[5]", "result": 73, "unit": "%"}, {"measurement": "Percentage of dead worm", "setting": "[6]", "result": "27.6 (50/181)"}, {"measurement": "Total dead worm", "setting": "[6]", "result": 50}, {"measurement": "TWR (%)", "setting": "[6]; total worm reduction rate", "result": 26.8, "unit": "%"}, {"measurement": "Mean total worm burden", "setting": "[6]; x ± SD", "result": "26.2 ± 5.9^b"}, {"measurement": "Tm dec. (° C.)", "setting": "[7]", "result": 147.9, "unit": "°C"}]}, {"smiles": "C[C@@H]1C(=O)C[C@H]2C[C@@H]1OO[C@@]2(C)/C=C\\c1ccc(C(F)(F)F)cc1C(F)(F)F", "note": "[arteflene, reference compound]", "values": [{"measurement": "activity in the same assay", "setting": "Schistosoma mansoni", "result": "inactive"}]}, {"smiles": "C[C@H]1[C@@H](O)O[C@@H]2O[C@@]3(C)CC[C@H]4[C@H](C)CC[C@@H]1[C@@]24OO3", "note": "[Dihydroart, dihydroartemisinin, reference compound]", "values": [{"measurement": "IC50", "setting": "[1]; in vitro, K1 strain, read-out: IC50 (ng/ml) K1", "result": 0.22, "unit": "ng/mL"}, {"measurement": "IC50", "setting": "[2]; in vitro, NF54 strain, read-out: IC50 (ng/ml) NF54", "result": 0.23, "unit": "ng/mL"}, {"measurement": "inhibition in vivo at 10 mg/kg", "setting": "[8]; percent reduction in parasitemia day 3 post-infection, single 10 mg/kg po, read-out: Activity (%) po", "result": 80, "unit": "%"}, {"measurement": "Survival (days) po", "setting": "[8]; single 10 mg/kg po", "result": "6.8/NA days"}, {"measurement": "ED50", "setting": "P. berghei [3]; 1 day, po, read-out: P. berghei (1 day) ED50 po", "result": 2.9, "unit": "mg/kg"}, {"measurement": "ED90", "setting": "P. berghei [3]; 1 day, po", "result": 12, "unit": "mg/kg"}, {"measurement": "IC50", "setting": "NB2a cell line", "result": 0.22, "unit": "µM"}]}, {"smiles": "CCOC(=O)CCC1CCCCC12OOC1(O2)C2CC3CC(C2)CC1C3", "note": "(stereo not drawn) [OZ08, Adamantane-2-spiro-3′-6′-[2′-(ethoxycarbonyl)ethyl]-1′,2′,4′-trioxaspiro[4.5]decane]", "values": [{"measurement": "antimalarial activity, overall assessment", "setting": "[8]; overall judgement of in vitro and in vivo data of Table 2", "result": "more active"}, {"measurement": "IC50", "setting": "NB2a cell line; NB2a cell line", "result": 42, "unit": "µM"}]}, {"smiles": "O=C1C2C3CC4C5C3C1C5C1(OOC3(O1)C1CC5CC(C1)CC3C5)C42", "note": "(stereo not drawn) [OZ14, Adamantane-2-spiro-3′-1′,2′,4′-trioxolane-5′-spiro-8″-11″-oxopentacyclo[5.4.0.0^2″,6″.0^3″,10″.0^5″,9″]undecane]", "values": [{"measurement": "FWR (%)", "setting": "[5]", "result": 0, "unit": "%"}, {"measurement": "Mean female worm burden", "setting": "[5]", "result": "12.4 ± 4.2"}, {"measurement": "TWR (%)", "setting": "[5]", "result": 7, "unit": "%"}, {"measurement": "Tm dec. (° C.)", "setting": "[7]", "result": 113.3, "unit": "°C"}, {"measurement": "Percentage of dead worm", "setting": "[9]", "result": 0}, {"measurement": "Total dead worm", "setting": "[9]", "result": 0}, {"measurement": "TWR (%)", "setting": "[9]; total worm reduction rate", "result": 0, "unit": "%"}, {"measurement": "Mean total worm burden", "setting": "[9]; x ± SD", "result": "44.5 ± 13.2"}]}, {"smiles": "C[C@H]1[C@H](OC(=O)CCC(=O)O)O[C@@H]2O[C@@]3(C)CC[C@H]4[C@H](C)CC[C@@H]1[C@@]24OO3", "note": "[Artesunate, artesunate, reference compound]", "values": [{"measurement": "IC50", "setting": "[1]; K1, read-out: IC50 (ng/ml) K1", "result": 1.2, "unit": "ng/mL"}, {"measurement": "IC50", "setting": "[2]; NF54, read-out: IC50 (ng/ml) NF54", "result": 1.2, "unit": "ng/mL"}, {"measurement": "inhibition in vivo at 10 mg/kg", "setting": "[8]; po, read-out: Activity (%) po", "result": 83.3, "unit": "%"}, {"measurement": "inhibition in vivo at 10 mg/kg", "setting": "[8]; sc, read-out: Activity (%) sc", "result": 81.1, "unit": "%"}, {"measurement": "Survival (days) po", "setting": "[8]; single 10 mg/kg po", "result": 7.1, "unit": "days"}, {"measurement": "Survival (days) sc", "setting": "[8]; single 10 mg/kg sc", "result": 8.0, "unit": "days"}, {"measurement": "P. berghei (1 day) ED90 sc", "setting": "P. berghei [3]; 1 day, sc", "result": 16, "unit": "mg/kg"}, {"measurement": "ED50", "setting": "P. berghei [3]; po, read-out: P. berghei (1 day) ED50 po", "result": 5, "unit": "mg/kg"}, {"measurement": "ED90", "setting": "P. berghei [3]; po", "result": 13, "unit": "mg/kg"}, {"measurement": "ED50", "setting": "P. berghei [3]; sc, read-out: P. berghei (1 day) ED50 sc", "result": 0.86, "unit": "mg/kg"}, {"measurement": "Recrudescence (>5% parasitemia) occurs on day", "setting": "parasitemia; single 100 mg/kg po on day +3 post-infection", "result": 2, "unit": "days"}, {"measurement": "onset of action: decline in parasitemia", "setting": "parasitemia; single 100 mg/kg po, monitored 12 h after treatment", "result": "rapid decline in parasitemia"}]}]}
